What all share (format): functional
For experiment [1], the system named is Eimeria tenella. Description: Anticococcidal activity against Eimeria tenella in Chick assessed as reduction in lesion at 2 ug/ml relative to control. Set-up: scale not given: the % may be the effect or the level left.
Experiment [2] has as its system Eimeria tenella. Description: Anticococcidal activity against Eimeria tenella in Chick assessed as reduction in lesion at 4 ug/ml relative to control. More on the design: scale not given: the % may be the effect or the level left.
Experiment [3] deals with Eimeria tenella. Description: Anticococcidal activity against Eimeria tenella in Chick assessed as reduction in lesion at 8 ug/ml relative to control. More on the design: scale not given: the % may be the effect or the level left.
For experiment [4], the species on record is Gallus gallus. Description: Increase in weight of Eimeria tenella infected Chick at 2 ug/ml relative to control.
Experiment [5] is filed under the species Gallus gallus. Description: Increase in weight of Eimeria tenella infected Chick at 4 ug/ml relative to control.
The species named for experiment [6] is Gallus gallus. Description: Increase in weight of Eimeria tenella infected Chick at 8 ug/ml relative to control.
Experiment [7] deals with Eimeria tenella. Description: Anticococcidal activity against Eimeria tenella in Chick assessed as reduction in lesion at 125 ug/ml relative to control. More on the design: scale not given: the % may be the effect or the level left.
The species named for experiment [8] is Gallus gallus. Description: Increase in weight of Eimeria tenella infected Chick at 125 ug/ml relative to control.

In the case of `O=[N+]([O-])/C=C/c1ccco1`, the Activity amounted to 58.57% in the experiment on Eimeria tenella [1]; 67.14% in the experiment with Eimeria tenella [2]; 72.86% in the experiment on Eimeria tenella [3]; 80.08% in the experiment listed under Gallus gallus [4]; 86.78% in the experiment filed under Gallus gallus [5]; 83.86% in the experiment listed under Gallus gallus [6].

Regarding `CCCc1ncc(C[n+]2ccccc2C)c(N)n1.Cl.[Cl-]` [AMPROLIUM], the Activity came to 60% in the experiment with Eimeria tenella [7] and 75.19% in the experiment listed under Gallus gallus [8].

These data come from ChEMBL document CHEMBL1144543, “QSAR study of anticoccidial activity for diverse chemical compounds: prediction and experimental assay of trans-2-(2-nitrovinyl)furan” (2007).
